Source: article PMC6152211 (Molecules : A Journal of Synthetic Chemistry and Natural …, 2017)
Where two headings read alike, the source gives them in different places. One block for each compound: values may come before it.

Assays:
[1] = rat plasma, cited from earlier work; for share of AUC in plasma: metabolite of sorafenib
[2] = dog plasma, cited from earlier work
[3] = human plasma, cited from earlier work
CYP3A4 = settings: cited from earlier work
CYP1A2 = settings: cited from earlier work
[4] = Phase I CYP3A4 metabolism study: sorafenib pharmacokinetics after pretreatment with grapefruit juice or ketoconazole (Part B); settings: for F (oral bioavailability) / CL: then single sorafenib 10 mg/kg p.o., mean ± SD, n = 6; for F (oral bioavailability): compared to Group A1 (3 mg/kg, i.v.), rat
[5] = Herbal drug pharmacokinetic interaction study of sorafenib in rat plasma (Part A); assay type: in vivo, Male Sprague-Dawley rats; settings: for bioavailability: read-out: F (oral bioavailability)
Text: The jugular-catheterized rats were randomly divided into four groups, Groups A1–A4, as described above. […] […] […] Data from these samples were used to construct pharmacokinetic profiles by plotting drug concentrations versus times.

rat liver [6] = assay: Hepatotoxicity study: serum AST and ALT levels (Part D); assay type: in vivo
Experimental: (§1) Hepatotoxicity and histopathological experiments were performed on 42 jugular-catheterized rats that were randomly divided into Groups D1–D7 containing six animals, as described above. In the “Part D” study, an aqueous solution of the LDXGT formulation and sorafenib were each administered to rats by oral gavage. Blood samples were collected from the jugular vein at 0, 0.5 and 1 h after dosing for the […] group. […] Serum was obtained by centrifugation. The levels of the AST and ALT enzymes were determined using an automatic biochemical analysis. After blood sampling, the livers were dissected from the rats in each group and prepared using a series of processes.

rat liver [7] = assay: Histopathological analysis of liver slices, H&E staining (Part D); assay type: in vivo
Experimental: Histopathological analyses were performed to quantitatively evaluate the degree of liver inflammation in our experimental model using a morphometric examination of liver sections and Modified Hepatic Activity Index Grading (Modified HAI Grading; Necroinflammatory Score).
as §1

[8] = Group A2: sorafenib 10 mg/kg, p.o. alone, rat plasma, mean ± SD, n = 6
[9] = Group A4: LDXGT formulation 2 g/kg/day p.o. for 5 consecutive days, then single sorafenib 10 mg/kg p.o., rat plasma, mean ± SD, n = 6
[10] = male, Sprague-Dawley, rat, plasma, iv, 3 mg/kg, Group A1: sorafenib 3 mg/kg, i.v., rat plasma, mean ± SD, n = 6
[11] = male, Sprague-Dawley, rat, plasma, po, 10 mg/kg, Group A2: sorafenib 10 mg/kg, p.o. alone, rat plasma, mean ± SD, n = 6
[12] = male, Sprague-Dawley, rat, plasma, po, 10 mg/kg, Group A3: LDXGT formulation 1 g/kg/day p.o. for 5 consecutive days, then single sorafenib 10 mg/kg p.o., rat plasma, mean ± SD, n = 6
[13] = male, Sprague-Dawley, rat, plasma, po, 10 mg/kg, Group A4: LDXGT formulation 2 g/kg/day p.o. for 5 consecutive days, then single sorafenib 10 mg/kg p.o., rat plasma, mean ± SD, n = 6

Structure (SMILES): CNC(=O)c1cc(Oc2ccc(NC(=O)Nc3ccc(Cl)c(C(F)(F)F)c3)cc2)cc[n+]1[O-] [M-2]
- share of AUC in plasma [1]: 0.9 % of AUC
- presence of the metabolite in plasma [2]: absent
- share of AUC in plasma ([3]; metabolite of sorafenib): 16.7 % of AUC

Structure (SMILES): O=C(Nc1ccc(Oc2ccnc(C(=O)NCO)c2)cc1)Nc1ccc(Cl)c(C(F)(F)F)c1 [M-3]
- share of AUC in plasma [1]: 12.1 % of AUC
- share of AUC in plasma ([2]; metabolite of sorafenib): 15.6 % of AUC

Structure (SMILES): NC(=O)c1cc(Oc2ccc(NC(=O)Nc3ccc(Cl)c(C(F)(F)F)c3)cc2)ccn1 [M-4]
- presence of the metabolite in plasma [1]: detected
- presence of the metabolite in plasma [2]: detected
- presence of the metabolite in plasma [3]: detected

Structure (SMILES): O=c1cc(-c2ccccc2)oc2cc(O)c(O)c(O)c12 [baicalein]
- effect on CYP3A4 enzyme activity (CYP3A4): inhibited

Structure (SMILES): O=C(O)[C@H]1O[C@@H](Oc2cc3oc(-c4ccccc4)cc(=O)c3c(O)c2O)[C@H](O)[C@@H](O)[C@@H]1O [baicalin]
- effect on CYP1A2 activity (CYP1A2; in vitro, baicalin in human liver microsomes): inhibits

Structure (SMILES): C=C[C@@H]1C2=CCOC(=O)C2=CO[C@H]1O[C@@H]1O[C@H](CO)[C@@H](O)[C@H](O)[C@H]1O [gentiopicroside]
- effect on CYP1A2 activity (CYP1A2; microsomes): significant increase
- effect on CYP3A4 enzyme activity (CYP3A4): significant increase

Structure (SMILES): CC(=O)N1CCN(c2ccc(OCC3COC(Cn4ccnc4)(c4ccc(Cl)cc4Cl)O3)cc2)CC1 (stereo not drawn) [ketoconazole]
- effect on the pharmacokinetics of a single oral sorafenib dose ([4]; ketoconazole 400 mg/kg/day, sorafenib 10 mg/kg p.o., rats): did not affect

- time after administration at which maximal plasma concentrations (Cmax) were observed ([5]; Group A2: single sorafenib 10 mg/kg, p.o., rat plasma, approximately): 3 to 8 h
- CL [5, 8]: 1.8 ± 0.7 mL/min/kg
- Vss [5, 8]: 1.564 ± 0.477 L/kg
- CL ([5]; Group A3: LDXGT formulation 1 g/kg/day p.o. for 5 consecutive days, then single sorafenib 10 mg/kg p.o., rat plasma, mean ± SD, n = 6): 2.1 ± 0.8 mL/min/kg
- F (oral bioavailability) ([5]; Group A4: LDXGT formulation 2 g/kg/day p.o. for 5 consecutive days, then single sorafenib 10 mg/kg p.o., compared to Group A1 (3 mg/kg, i.v.), rat, mean ± SD, n = 6): 49 ± 5.0%
- CL [5, 9]: 1.8 ± 0.2 mL/min/kg
- Vss [5, 9]: 1.565 ± 0.231 L/kg
- time after administration at which maximal plasma concentrations were reached ([5]; each of Groups A2–A4 (sorafenib 10 mg/kg p.o. alone or after LDXGT 1 or 2 g/kg/day), rat plasma, approximately): 3 to 8 h
- concentration at 8 min ([5]; male, Sprague-Dawley, rat, plasma, intravenous, 3 mg/kg): 2840 ng/mL
- clearance ([5]; male, Sprague-Dawley, rat, plasma, iv, 3 mg/kg): 1.1 ± 0.4 mL/min/kg
- AUC [5, 10]: 56000 ng·h/mL
- Cmax [5, 10]: 4600 ± 200 ng/mL
- half-life [5, 10]: 8.32 ± 4.58 h
- Vd ([5]; male, Sprague-Dawley, rat, plasma, iv, 3 mg/kg, read-out: Vss): 1.19 ± 0.129 L/kg
- bioavailability ([5]; male, Sprague-Dawley, rat, plasma, po, 10 mg/kg, Group A2: sorafenib 10 mg/kg, p.o. alone, compared to Group A1 (3 mg/kg, i.v.), rat, mean ± SD, n = 6): 56 ± 20%
- AUC [5, 11]: 104000 ng·h/mL
- Cmax [5, 11]: 5000 ± 1400 ng/mL
- Tmax [5, 11]: 7 h
- half-life [5, 11]: 10.5 ± 1.97 h
- AUC [5, 12]: 94200 ng·h/mL
- Cmax [5, 12]: 4800 ± 1000 ng/mL
- Tmax [5, 12]: 6.33 h
- half-life [5, 12]: 10.8 ± 3.2 h
- AUC [5, 13]: 91500 ng·h/mL
- Cmax [5, 13]: 4800 ± 700 ng/mL
- Tmax [5, 13]: 5.17 h
- half-life [5, 13]: 9.9 ± 2.55 h
- bioavailability ([5]; male, Sprague-Dawley, rat, plasma, po, 10 mg/kg): 50 ± 24%
- pharmacokinetic properties across doses (concentration versus time profile) ([5]; pilot study, single dose 10, 20 and 40 mg/kg, p.o., rat plasma): dose-dependent
- F (oral bioavailability) ([4]; Group B1 (GFJ3): grapefruit juice 3 mL/day p.o. for 5 consecutive days): 45 ± 11%
- CL ([4]; Group B1 (GFJ3): grapefruit juice 3 mL/day p.o. for 5 consecutive days, rat plasma): 2.0 ± 0.4 mL/min/kg
- F (oral bioavailability) ([4]; Group B2 (GFJ6): grapefruit juice 6 mL/day p.o. for 5 consecutive days): 39 ± 14%
- CL ([4]; Group B2 (GFJ6): grapefruit juice 6 mL/day p.o. for 5 consecutive days, rat plasma): 2.6 ± 1.1 mL/min/kg
- F (oral bioavailability) ([4]; Group B4 (KCZ40): ketoconazole 40 mg/kg/day p.o. for 5 consecutive days): 42 ± 14%
- CL ([4]; Group B4 (KCZ40): ketoconazole 40 mg/kg/day p.o. for 5 consecutive days, rat plasma): 2.3 ± 0.8 mL/min/kg
- time after administration at which maximal plasma concentrations were achieved ([4]; each of Groups A2, B1–B4 (sorafenib 10 mg/kg p.o. alone or after grapefruit juice or ketoconazole), rat plasma, approximately): 3 to 8 h
- bioavailability ([4]; male, Sprague-Dawley, in vivo, po, 10 mg/kg): 52 ± 4.3%
Structure (SMILES): CNC(=O)c1cc(Oc2ccc(NC(=O)Nc3ccc(Cl)c(C(F)(F)F)c3)cc2)ccn1 [sorafenib, Sorafenib]
- liver function (AST and ALT) (rat liver [6]; repeated sorafenib 10 mg/kg for 2 weeks alone or combined with LDXGT, Groups D5–D7): marked elevation
- liver function (AST and ALT) (rat liver [6]; single sorafenib dose 10 mg/kg p.o. alone or after LDXGT pretreatment, among Groups D2–D4, 0, 3 and 6 h after dosing): No significant difference
- liver histopathology (H&E staining) (rat liver [7]; repeated administration groups, Groups D5–D7 (sorafenib 10 mg/kg for 2 weeks, alone or with LDXGT)): marked focal inflammation, portal inflammation, focal hemorrhage and congestion, focal lytic necrosis and hepatocyte apoptosis, liver cell degeneration and disrupted intercellular cohesion
- liver histopathology (H&E staining) (rat liver [7]; single-dose groups, Groups D1–D4 (sorafenib 3 mg/kg i.v. or 10 mg/kg p.o., alone or after LDXGT)): focal inflammation, portal inflammation, focal hemorrhage and congestion, focal lytic necrosis and hepatocyte apoptosis
